Legend:
[1] = molecular target: human PI3K isoform beta (p110 beta) (Homo sapiens, UniProt P42338); assay: p110 isoform selectivity scintillation proximity assay (SPA), beta isoform; format: biochemical; settings: fold potency over beta relative to alpha, calculated from IC50 values (SPA)
Method: (§1) Binding of Formula Ia and Ib compounds from Tables 1a and 1b to purified preparations of p110 isoforms alpha, beta, delta, and gamma was measured by a Scintillation Proximity Assay (SPA) to determine binding activity (IC50 μMol) and selectivity of binding of beta, delta, and gamma isoforms relative to alpha (Example 365). These values are expressed in Table 2.
(§2) The ability of Formula Ia and Ib compounds from Tables 1a and 1b to inhibit the lipid kinase activity of purified preparations of human PI3K isoforms alpha, beta, delta, and gamma was determined by a radiometric scintillation proximity assay (SPA, GE Healthcare, Amersham Biosciences). Concentration dependent inhibition at 50% (IC50 μMol) was determined for all four isoforms […] and fold potency over beta, delta, and gamma relative to alpha was calculated for a selection of compounds in Table 2. Each compound has a p110 alpha IC50<1 μMol.

[2] = molecular target: human PI3K isoform delta (p110 delta) (Homo sapiens, UniProt O00329); assay: p110 isoform selectivity scintillation proximity assay (SPA), delta isoform; format: biochemical; settings: fold potency over delta relative to alpha, calculated from IC50 values (SPA)
Method: as §1, §2

[3] = molecular target: human PI3K isoform gamma (p110 gamma) (Homo sapiens, UniProt P48736); assay: p110 isoform selectivity scintillation proximity assay (SPA), gamma isoform; format: biochemical; settings: fold potency over gamma relative to alpha, calculated from IC50 values (SPA)
Method: as §1, §2

[4] = cited from earlier work
[5] = cited from earlier work; remark: listed apart in the source

human PI3K isoform beta (p110 beta), sequence (P42338 whole entry, canonical isoform): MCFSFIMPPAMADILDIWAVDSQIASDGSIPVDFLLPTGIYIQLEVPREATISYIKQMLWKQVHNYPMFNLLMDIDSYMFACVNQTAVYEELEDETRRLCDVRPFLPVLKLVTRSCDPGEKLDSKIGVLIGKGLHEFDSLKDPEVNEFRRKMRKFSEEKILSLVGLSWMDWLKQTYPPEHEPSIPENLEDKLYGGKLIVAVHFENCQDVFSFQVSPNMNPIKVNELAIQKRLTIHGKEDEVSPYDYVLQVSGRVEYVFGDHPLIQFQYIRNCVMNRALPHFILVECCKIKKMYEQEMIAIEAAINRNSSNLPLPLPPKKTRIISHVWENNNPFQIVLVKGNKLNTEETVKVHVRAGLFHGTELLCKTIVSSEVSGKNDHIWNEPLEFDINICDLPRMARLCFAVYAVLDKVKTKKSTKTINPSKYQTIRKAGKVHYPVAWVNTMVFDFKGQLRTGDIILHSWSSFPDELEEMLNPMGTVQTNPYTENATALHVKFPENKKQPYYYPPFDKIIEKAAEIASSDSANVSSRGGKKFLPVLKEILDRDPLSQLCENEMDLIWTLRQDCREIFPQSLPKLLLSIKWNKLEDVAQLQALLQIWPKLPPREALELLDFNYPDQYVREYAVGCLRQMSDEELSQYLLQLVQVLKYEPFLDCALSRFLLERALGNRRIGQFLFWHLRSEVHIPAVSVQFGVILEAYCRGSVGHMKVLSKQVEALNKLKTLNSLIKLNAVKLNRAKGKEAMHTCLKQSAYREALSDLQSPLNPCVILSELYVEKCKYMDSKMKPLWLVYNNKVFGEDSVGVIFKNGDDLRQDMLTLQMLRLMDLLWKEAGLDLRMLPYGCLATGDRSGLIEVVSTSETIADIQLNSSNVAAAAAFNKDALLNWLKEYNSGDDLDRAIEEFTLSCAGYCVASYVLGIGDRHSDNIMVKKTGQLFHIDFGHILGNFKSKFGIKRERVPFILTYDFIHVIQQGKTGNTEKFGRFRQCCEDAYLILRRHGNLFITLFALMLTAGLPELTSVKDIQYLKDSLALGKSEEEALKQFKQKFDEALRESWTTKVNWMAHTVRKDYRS
human PI3K isoform beta (p110 beta), sequence (P27986 whole entry partner, canonical isoform): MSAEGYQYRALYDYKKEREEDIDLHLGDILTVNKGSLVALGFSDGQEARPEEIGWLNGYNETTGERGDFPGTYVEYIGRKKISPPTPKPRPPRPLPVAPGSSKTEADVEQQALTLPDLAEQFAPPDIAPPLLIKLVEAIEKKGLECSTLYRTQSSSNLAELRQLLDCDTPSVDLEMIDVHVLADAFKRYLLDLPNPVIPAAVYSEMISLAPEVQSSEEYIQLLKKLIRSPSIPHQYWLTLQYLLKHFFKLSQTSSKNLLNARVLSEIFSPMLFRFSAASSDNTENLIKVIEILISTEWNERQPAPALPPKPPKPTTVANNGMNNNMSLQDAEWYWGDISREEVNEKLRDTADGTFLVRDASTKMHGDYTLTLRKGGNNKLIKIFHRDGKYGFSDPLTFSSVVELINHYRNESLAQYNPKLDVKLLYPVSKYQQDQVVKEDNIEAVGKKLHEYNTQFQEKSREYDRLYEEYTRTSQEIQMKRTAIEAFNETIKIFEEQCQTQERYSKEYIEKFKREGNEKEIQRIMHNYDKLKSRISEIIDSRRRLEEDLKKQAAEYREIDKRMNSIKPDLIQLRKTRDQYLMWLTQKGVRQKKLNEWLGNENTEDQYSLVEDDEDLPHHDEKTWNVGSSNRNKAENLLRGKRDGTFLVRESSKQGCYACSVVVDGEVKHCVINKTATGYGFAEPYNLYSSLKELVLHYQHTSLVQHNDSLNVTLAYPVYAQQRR
human PI3K isoform delta (p110 delta), sequence (O00329 whole entry, canonical isoform): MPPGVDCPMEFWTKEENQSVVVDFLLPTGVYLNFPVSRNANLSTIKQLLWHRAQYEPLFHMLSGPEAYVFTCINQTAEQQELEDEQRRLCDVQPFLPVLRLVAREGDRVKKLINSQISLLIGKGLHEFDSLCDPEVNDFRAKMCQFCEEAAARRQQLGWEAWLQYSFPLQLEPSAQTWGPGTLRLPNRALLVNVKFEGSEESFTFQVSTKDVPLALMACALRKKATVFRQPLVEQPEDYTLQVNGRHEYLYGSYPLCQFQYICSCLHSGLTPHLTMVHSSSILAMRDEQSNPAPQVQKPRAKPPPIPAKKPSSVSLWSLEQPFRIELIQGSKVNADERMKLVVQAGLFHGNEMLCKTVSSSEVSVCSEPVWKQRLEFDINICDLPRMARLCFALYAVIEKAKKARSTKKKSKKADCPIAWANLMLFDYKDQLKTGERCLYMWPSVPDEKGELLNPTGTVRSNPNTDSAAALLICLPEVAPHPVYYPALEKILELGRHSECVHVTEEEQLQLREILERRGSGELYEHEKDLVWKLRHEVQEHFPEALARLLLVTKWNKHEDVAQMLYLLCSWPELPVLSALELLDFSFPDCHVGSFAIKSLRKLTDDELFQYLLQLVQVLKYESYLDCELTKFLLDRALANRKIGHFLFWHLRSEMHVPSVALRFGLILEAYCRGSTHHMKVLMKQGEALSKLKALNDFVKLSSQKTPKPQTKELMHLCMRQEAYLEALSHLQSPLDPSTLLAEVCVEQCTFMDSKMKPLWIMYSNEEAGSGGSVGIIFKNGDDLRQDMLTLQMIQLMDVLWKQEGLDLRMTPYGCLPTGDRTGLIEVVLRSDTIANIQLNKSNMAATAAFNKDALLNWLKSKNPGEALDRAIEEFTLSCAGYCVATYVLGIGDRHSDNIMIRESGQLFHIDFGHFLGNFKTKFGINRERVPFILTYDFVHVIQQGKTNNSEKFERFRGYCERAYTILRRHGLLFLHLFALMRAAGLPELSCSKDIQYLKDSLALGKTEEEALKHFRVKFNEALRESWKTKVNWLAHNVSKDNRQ
human PI3K isoform delta (p110 delta), sequence (P27986 whole entry partner, canonical isoform): as the sequence (P27986 whole entry partner, canonical isoform) above
human PI3K isoform gamma (p110 gamma), sequence (P48736 whole entry, canonical isoform): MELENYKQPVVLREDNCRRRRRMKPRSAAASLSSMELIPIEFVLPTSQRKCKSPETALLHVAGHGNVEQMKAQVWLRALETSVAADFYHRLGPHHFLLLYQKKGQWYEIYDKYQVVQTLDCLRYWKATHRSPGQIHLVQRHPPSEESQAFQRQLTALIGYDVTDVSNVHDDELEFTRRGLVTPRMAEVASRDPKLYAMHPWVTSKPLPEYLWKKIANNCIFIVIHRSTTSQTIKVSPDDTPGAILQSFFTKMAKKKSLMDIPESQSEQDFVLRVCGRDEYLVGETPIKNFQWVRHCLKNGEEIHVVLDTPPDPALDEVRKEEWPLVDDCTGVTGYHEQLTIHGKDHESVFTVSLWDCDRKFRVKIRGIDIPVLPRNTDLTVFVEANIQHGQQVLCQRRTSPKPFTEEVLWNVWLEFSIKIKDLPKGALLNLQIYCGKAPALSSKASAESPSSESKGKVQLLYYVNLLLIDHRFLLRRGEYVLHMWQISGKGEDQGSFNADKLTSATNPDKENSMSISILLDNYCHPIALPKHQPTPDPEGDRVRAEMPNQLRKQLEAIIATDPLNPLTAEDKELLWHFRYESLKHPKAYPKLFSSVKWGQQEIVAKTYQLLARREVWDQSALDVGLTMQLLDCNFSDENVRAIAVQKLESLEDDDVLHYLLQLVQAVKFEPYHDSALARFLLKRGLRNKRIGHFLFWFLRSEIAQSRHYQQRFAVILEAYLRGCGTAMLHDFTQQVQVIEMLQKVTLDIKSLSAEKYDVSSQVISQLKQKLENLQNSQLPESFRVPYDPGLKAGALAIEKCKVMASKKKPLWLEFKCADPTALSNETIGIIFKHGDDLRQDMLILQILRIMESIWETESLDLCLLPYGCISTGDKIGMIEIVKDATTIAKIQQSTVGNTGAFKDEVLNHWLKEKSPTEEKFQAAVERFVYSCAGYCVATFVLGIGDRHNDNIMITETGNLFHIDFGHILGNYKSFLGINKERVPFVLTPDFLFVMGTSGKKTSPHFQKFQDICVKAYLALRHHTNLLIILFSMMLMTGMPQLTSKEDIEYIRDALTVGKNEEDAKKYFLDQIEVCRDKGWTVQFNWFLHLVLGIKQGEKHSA

Row | Compound | alpha/beta [1] | alpha/delta [2] | alpha/gamma [3] | aqueous solubility [4] | metabolism in animals ([5]; animals) | pharmacokinetics ([5]; in vivo)
1 | OCc1cccc(-c2cc3nc(-c4cccc5[nH]ncc45)nc(N4CCOCC4)c3s2)c1 [Compound 237, (3-(2-(1H-indazol-4-yl)-4-morpholinothieno[3,2-d]pyrimidin-6-yl)phenyl)methanol] | >10 | <10 | >10 | – | – | –
2 | CC(=O)Nc1cccc(-c2cc3nc(-c4cccc5[nH]ncc45)nc(N4CCOCC4)c3s2)c1 [Compound 238, N-(3-(2-(1H-indazol-4-yl)-4-morpholinothieno[3,2-d]pyrimidin-6-yl)phenyl)acetamide] | >10 | <10 | >10 | – | – | –
3 | O=C(NCCN1CCCCC1)c1cc2nc(-c3cccc4[nH]ncc34)nc(N3CCOCC3)c2s1 [Compound 257, 2-(1H-indazol-4-yl)-4-morpholino-N-(2-(piperidin-1-yl)ethyl)thieno[3,2-d]pyrimidine-6-carboxamide] | <10 | <10 | >10 | – | – | –
4 | CN(C)C(=O)c1cc2nc(-c3cccc4[nH]ncc34)nc(N3CCOCC3)c2s1 [Compound 263, 2-(1H-indazol-4-yl)-N,N-dimethyl-4-morpholinothieno[3,2-d]pyrimidine-6-carboxamide] | <10 | <10 | >10 | – | – | –
5 | CS(=O)(=O)c1cccc(-c2cc3nc(-c4cccc5[nH]ncc45)nc(N4CCOCC4)c3s2)c1 [Compound 265, 2-(1H-indazol-4-yl)-6-(3-(methylsulfonyl)phenyl)-4-morpholinothieno[3,2-d]pyrimidine] | >10 | <10 | >10 | – | – | –
6 | CN(C)Cc1cc2nc(-c3cccc4[nH]ncc34)nc(N3CCOCC3)c2s1 [Compound 304, (2-(1H-indazol-4-yl)-4-morpholinothieno[3,2-d]pyrimidin-6-yl)-N,N-dimethylmethanamine] | 10 | <10 | >10 | – | – | –
7 | O=C(NCc1cc2nc(-c3cccc4[nH]ncc34)nc(N3CCOCC3)c2s1)N1CCOCC1 [Compound 305, N-((2-(1H-indazol-4-yl)-4-morpholinothieno[3,2-d]pyrimidin-6-yl)methyl)morpholine-4-carboxamide] | <10 | <10 | >10 | – | – | –
8 | c1cc(-c2nc(N3CCOCC3)c3sc(Cn4ccnc4)cc3n2)c2cn[nH]c2c1 [Compound 312, 6-((1H-imidazol-1-yl)methyl)-2-(1H-indazol-4-yl)-4-morpholinothieno[3,2-d]pyrimidine] | <10 | <10 | >10 | – | – | –
9 | COC/C=C/c1cc2nc(-c3cccc4[nH]ncc34)nc(N3CCOCC3)c2s1 [Compound 334] | >10 | <10 | >10 | – | – | –
10 | C[C@H](O)CNC(=O)c1cccc(-c2cc3nc(-c4cccc5[nH]ncc45)nc(N4CCOCC4)c3s2)c1 [Compound 336, 3-(2-(1H-indazol-4-yl)-4-morpholinothieno[3,2-d]pyrimidin-6-yl)-N-((S)-2-hydroxypropyl)benzamide] | >10 | <10 | >10 | – | – | –
11 | O=C(O)c1cccc(-c2cc3nc(-c4cccc5[nH]ncc45)nc(N4CCOCC4)c3s2)c1 [Compound 338, 3-(2-(1H-indazol-4-yl)-4-morpholinothieno[3,2-d]pyrimidin-6-yl)benzoic acid] | >10 | <10 | >10 | – | – | –
12 | CS(=O)(=O)N1CCC(C(O)c2cc3nc(-c4cccc5[nH]ncc45)nc(N4CCOCC4)c3s2)CC1 (stereo not drawn) [Compound 353, (2-(1H-indazol-4-yl)-4-morpholinothieno[3,2-d]pyrimidin-6-yl)(4-N-methylsulfonylpiperidin-4-yl)methanol] | <10 | <10 | >10 | – | – | –
13 | O=c1cc(N2CCOCC2)oc2c(-c3ccccc3)cccc12 [LY294002, 2-(4-morpholinyl)-8-phenyl-4H-1-benzopyran-4-one] | – | – | – | lack of aqueous solubility | rapidly metabolized in animals | poor pharmacokinetics

More lines, main results first:

Row | alpha/beta [1] | alpha/delta [2] | alpha/gamma [3] | Compound | aqueous solubility [4] | metabolism in animals ([5]; animals) | pharmacokinetics ([5]; in vivo)
14 | >10 | >10 | >10 | Cc1c(-c2cccc(S(C)(=O)=O)c2)sc2c(N3CCOCC3)nc(-c3cccc4[nH]ncc34)nc12 [Compound 360, 2-(1H-indazol-4-yl)-7-methyl-6-(3-(methylsulfonyl)phenyl)-4-morpholinothieno[3,2-d]pyrimidine] | – | – | –
15 | <10 | <10 | >10 | COc1ccc(NCc2cc3nc(-c4cccc5[nH]ncc45)nc(N4CCOCC4)c3s2)cn1 [Compound 368, N-((2-(1H-indazol-4-yl)-4-morpholinothieno[3,2-d]pyrimidin-6-yl)methyl)-6-methoxypyridin-3-amine] | – | – | –
16 | >10 | <10 | >10 | CC(C)(NC(=O)c1ccccc1)c1cc2nc(-c3cccc4[nH]ncc34)nc(N3CCOCC3)c2s1 [Compound 388, N-(2-(2-(1H-indazol-4-yl)-4-morpholinothieno[3,2-d]pyrimidin-6-yl)propan-2-yl)benzamide] | – | – | –
17 | <10 | <10 | <10 | CN(Cc1cc2nc(-c3cccc4[nH]ncc34)nc(N3CCOCC3)c2s1)C(=O)c1ccccc1 [Compound 390, N-((2-(1H-indazol-4-yl)-4-morpholinothieno[3,2-d]pyrimidin-6-yl)methyl)-N-methylbenzamide] | – | – | –
18 | >10 | >10 | >10 | Cc1c(-c2cccc(S(C)(=O)=O)c2)sc2c(N3CCOCC3)nc(-c3cnc4[nH]ccc4c3)nc12 [Compound 395, 7-methyl-6-(3-(methylsulfonyl)phenyl)-4-morpholino-2-(1H-pyrrolo[2,3-b]pyridin-5-yl)thieno[3,2-d]pyrimidine] | – | – | –
19 | >10 | >10 | >10 | CN(Cc1cc2c(N3CCOCC3)nc(-c3cnc4[nH]ccc4c3)nc2s1)S(C)(=O)=O [Compound 417, N-methyl, N-methylsulfonyl(4-morpholino-2-(1H-pyrrolo[2,3-b]pyridin-5-yl)thieno[2,3-d]pyrimidin-6-yl)methanamine] | – | – | –
20 | >10 | 10 | >10 | CS(=O)(=O)c1cccc(-c2cc3nc(-c4cnc5[nH]ccc5c4)nc(N4CCOCC4)c3s2)c1 [Compound 418, 6-(3-(methylsulfonyl)phenyl)-4-morpholino-2-(1H-pyrrolo[2,3-b]pyridin-5-yl)thieno[3,2-d]pyrimidine] | – | – | –
21 | >10 | <10 | >10 | CC(C)(O)c1cc2nc(-c3cnc4[nH]ccc4c3)nc(N3CCOCC3)c2s1 [Compound 422, 2-(4-morpholino-2-(1H-pyrrolo[2,3-b]pyridin-5-yl)thieno[3,2-d]pyrimidin-6-yl)-propan-2-ol] | – | – | –
22 | >10 | >10 | >10 | c1cc2cc(-c3nc(N4CCOCC4)c4sc(-c5ccc(N6CCOCC6)nc5)cc4n3)cnc2[nH]1 [Compound 428, 4-morpholino-6-(6-morpholinopyridin-3-yl)-2-(1H-pyrrolo[2,3-b]pyridin-5-yl)thieno[3,2-d]pyrimidine] | – | – | –
23 | >10 | >10 | >10 | Nc1nc(-c2cc3nc(-c4cnc5[nH]ccc5c4)nc(N4CCOCC4)c3s2)cs1 [Compound 429, 4-(4-morpholino-2-(1H-pyrrolo[2,3-b]pyridin-5-yl)thieno[3,2-d]pyrimidin-6-yl)thiazol-2-amine] | – | – | –

— US8450315B2, “Phosphoinositide 3-kinase inhibitor compounds and methods of use” (Genentech, Inc., priority 2006, dated 2013)
